# According to patent US12539287B2, “L-DOPA microbiome therapy” (Iowa State University Research Foundation, Inc., priority 2018, dated 2026):
# How the values were obtained:
# [1] = Bz 50 mg/kg 3 times/day
# Experimental: Mice were orally administered a single daily dose of 10^9 CFU EcN^2L-DOPA or PBS and also Bz (50 mg/kg) 3 times/day for 1 and 2 days. Plasma samples collected through submandibular sampling prior to EcN^2L-DOPA treatment (serving as baseline), and at 4, 8, 16, 24 and 48 h post-EcN^2L-DOPA and Bz (50 mg/kg) treatment, were assayed for L-DOPA production by HPLC. […] We increased the dose and frequency of Bz because of its short half-life.
# [2] = cited from earlier work
# [3] = humans; cited from earlier work
Compound,duration of Bz plasma levels [1],solubility in water [2],optimal therapeutic plasma levels [3] [ng/mL]
"NC(CO)C(=O)NNCc1ccc(O)c(O)c1O (stereo not drawn) [Bz, benserazide]",up to 30 h,–,–
"N[C@@H](Cc1ccc(O)c(O)c1)C(=O)O [L-DOPA, (−)-L-a-amino-b-(3,4-dihydroxybenzene)propanoic acid]",–,slightly soluble in water,300 to 1600
